We go through 19 molecules from US5856529A, “Benzofuran and dihydrobenzofuran melatonergic agents” (Bristol-Myers Squibb Company, priority 1997, dated 1999).

In this assay the target is T1, ML1a human melatonin receptor (Homo sapiens, UniProt P48039).
T1 construct: expressed in transfected cells
T1 sequence (P48039 whole entry): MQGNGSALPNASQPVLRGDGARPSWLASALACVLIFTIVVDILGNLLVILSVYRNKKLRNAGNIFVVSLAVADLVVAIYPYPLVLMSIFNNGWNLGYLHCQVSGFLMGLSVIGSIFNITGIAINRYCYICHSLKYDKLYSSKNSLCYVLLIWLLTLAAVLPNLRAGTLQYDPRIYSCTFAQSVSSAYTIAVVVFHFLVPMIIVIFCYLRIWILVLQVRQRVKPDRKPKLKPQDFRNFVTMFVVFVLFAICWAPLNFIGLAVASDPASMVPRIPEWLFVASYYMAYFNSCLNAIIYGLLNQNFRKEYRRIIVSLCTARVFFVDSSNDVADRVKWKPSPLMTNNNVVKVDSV
In words: Melatonergic Receptor Binding Activity (2-[125I]-iodomelatonin, membranes of NIH-3T3 cells expressing ML1a receptor). The settings on record: 37° C. for 1 hour, read-out: Melatonin Binding Affinity (IC50). The method, then: Melatonergic Receptor Binding Activity
(a) TME=50 mM Tris buffer containing 12.5 mM MgCl2, and 2 mM EDTA, pH 7.4 at 37° C. with concentrated HCl.
(b) Wash buffer: 20 mM Tris base containing 2 mM MgCl2, pH 7.4 at room temperature.
(c) 10^-4 M melatonin (10^-5 M final concentration).
(d) 2-[^125 I]-iodomelatonin, […] final concentration
The melatonin ML1a receptor cDNA was subcloned into pcDNA3 and introduced into NIH-3T3 cells using Lipofectamine. Transformed NIH-3T3 cells resistant to geneticin (G-418) were isolated, and single colonies expressing high levels of 2[^125 I]-iodomelatonin binding were isolated. Cells are maintained in DMEM supplemented with 10% calf serum and G-418 (0.5 g/liter). Cells are grown to confluency in T-175 flasks, scraped using Hank's balanced salt solution, and frozen at -80° C. For preparing membrane homogenates, pellets are thawed on ice, and resuspended in TME buffer in the presence of 10 μg/ml aprotinin and leupeptin, and 100 μM phenylmethylsulfonylfluoride. The cells were then homogenized using a dounce homogenizer, and centrifuged. The resulting pellet was resuspended with dounce homogenizer in TME (supplemented with the above protease inhibitors) and frozen. On the day of assay, the small aliquot was thawed on ice and resuspended in ice cold TME (1:50-1:100 v/v) and held on ice until assayed.
3. Incubation: 37° C. for 1 hour. Reaction is terminated by filtration. Filters are washed 3 times.
By IC50 is commonly meant the concentration needed to halve the response being measured. For `CCC(=O)NC[C@@H]1C[C@H]1c1cccc2c1CCO2` (relative stereo) [Example 29, (trans)-N-[[2-(2,3-dihydrobenzofuran-4-yl)cycloprop-1-yl]methyl] propanamide], the IC50 was less than 10 nM.

On to `CCC(=O)NCC1C(c2cccc3oc(C)cc23)C1(F)F` (stereo not shown) [Example 95, N-[[2-(2-Methyl-4-benzofuranyl)-3,3-difluorocyclopropanyl]-methyl]propanamide], for which the IC50 lay in the range of 10 to 100 nM.

On to `CCC(=O)NC[C@@H]1C[C@H]1c1cccc2c1CCO2` (single isomer, unassigned) [Example 2, (-)-(trans)-N-[[2-(2,3-Dihydrobenzofuran-4-yl)cycloprop-1-yl]methyl]propanamide], for which the IC50 was less than 10 nM.

On to `CC(=O)NC[C@@H]1C[C@H]1c1cccc2c1OCO2` (relative stereo) [Example 3, (trans)-N-[[2-(1,3-benzodioxol-4-yl)cycloprop-1-yl]methyl]acetamide], for which the concentration for half-maximal inhibition (IC50) is less than 10 nM.

In the case of `CCCC(=O)NC[C@@H]1C[C@H]1c1cccc2c1CCO2` (relative stereo) [Example 30, (trans)-N-[[2-(2,3-dihydrobenzofuran-4-yl)cycloprop-1-yl]methyl] butanamide], the concentration for half-maximal inhibition (IC50) is less than 10 nM.

As to `CCCC(=O)NC[C@@H]1C[C@H]1c1cccc2oc(C)cc12` (relative stereo) [Example 76, (trans)-N-[[2-(2-methyl-benzofuran-4-yl)cycloprop-1-yl]methyl]-butanamide], the IC50 is less than 10 nM.

Turning to `O=C(NC[C@@H]1C[C@H]1c1cccc2c1OCC2)C1CC1` (relative stereo) [Example 67], the IC50 is 10 to 100 nM.

`O=C(NC[C@@H]1C[C@H]1c1cccc2c1OCCO2)C(F)(F)F` (single isomer, unassigned) [Example 54, (-)-(trans)-N-[[2-(2,3-dihydro-1,4-benzodioxin-5-yl)cycloprop-1-yl]methyl]trifluoroacetamide]: the 50% inhibitory concentration (IC50) is less than 10 nM.

As to `O=C(NC[C@@H]1C[C@H]1c1cccc2ccoc12)C1CC1` (relative stereo) [Example 80, (trans)-N-[[2-(benzofuran-7-yl)cycloprop-1-yl]methyl]-cyclopropanecarboxamide], the IC50 fell in the range of 10 to 100 nM.

For the molecule `CC(C)C(=O)NC[C@@H]1C[C@H]1c1cccc2c1OCO2` (relative stereo) [Example 11, (trans)-N-[[2-(1,3-benzodioxol-4-yl)cycloprop-1-yl]methyl]-2-methylpropanamide], the IC50 lay within 10 to 100 nM.

`CCC(=O)NC[C@@H]1C[C@H]1c1cccc2c1CCCCO2` (relative stereo) [Example 61]: the half-maximal inhibitory concentration (IC50) is 100 to 250 nM.

For the molecule `CCC(=O)NC[C@@H]1C[C@H]1c1cccc2occc12` (relative stereo) [Example 23, (trans)-N-[[2-(benzofuran-4-yl)cycloprop-1-yl]methyl]propanamide], the IC50 was less than 10 nM.

Turning to `C=CC(=O)NC[C@@H]1C[C@H]1c1cccc2c1OCCO2` (single isomer, unassigned) [Example 52], the IC50 is less than 10 nM.

For `CC(=O)NC[C@@H]1C[C@H]1c1cccc2c1OCCCO2` (relative stereo) [Example 60], the IC50 is 10 to 100 nM.

As for `CCC(=O)NC[C@@H]1C[C@H]1c1cccc2c1CCCO2` (single isomer, unassigned) [Example 96, (+)-(trans)-N-[[2-(3,4-dihydro-2H-1-benzopyran-5-yl)cycloprop-1-yl]methyl]propanamide], the IC50 is less than 10 nM.

Take `CCC(=O)NC[C@@H]1C[C@H]1c1cccc2c1CCCO2` (single isomer, unassigned) [Example 42, (-)-(trans)-N-[[2-(3,4-dihydro-2H-1-benzopyran-5-yl)cycloprop-1-yl]methyl]propanamide]: the half-inhibitory concentration (IC50) was in the range of 10 to 100 nM.

For `O=C(NC[C@@H]1C[C@H]1c1cccc2c1OCCO2)C1CC1` (relative stereo) [Example 18, (trans)-N-[[2-(2,3-dihydro-1,^4-benzodioxin-5-yl)cycloprop-1-yl]-methyl]cyclopropane carboxamide], the IC50 fell in the range of 10 to 100 nM.

`CCC(=O)NC[C@@H]1C[C@H]1c1cccc2c1CC(C)O2` (single isomer, unassigned; (-)) [Example 88, (-)-(trans)-N-[[^2-(2-methyl-2,3-dihydrobenzofuran-4-yl)cycloprop-1-yl]methyl]propanamide]: the IC50 was less than 10 nM.

On to `CCC(=O)NC[C@@H]1C[C@H]1c1cccc2c1CC(C)O2` (single isomer, unassigned; (+)) [Example 82, (+)-(trans)-N-[[2-(2-methyl-2,3-dihydrobenzofuran-4-yl)cycloprop-1-yl]methyl]propanamide], for which the IC50 was less than 10 nM.
